Tests used:
Assay type in all cases: functional
K562 [1] = test: Cytotoxicity against human K562 cells after 48 hrs by SRB assay; conditions: K562, 48 h; for CC50: read-out: LC50 (the source's name); for GI50: read-out: pGI50 (converted)
HCT-116 [2] = test: Cytotoxicity against human HCT116 cells after 48 hrs by SRB assay; conditions: HCT-116, 48 h; for GI50: read-out: pGI50 (converted)
HCT-15 [3] = test: Cytotoxicity against human HCT15 cells after 48 hrs by SRB assay; conditions: HCT-15, 48 h; for GI50: read-out: pGI50 (converted); for CC50: read-out: pLC50 (the source's name) (converted)
SF-295 = test: Cytotoxicity against human SF295 cells after 48 hrs by SRB assay; conditions: SF-295, 48 h; for GI50: read-out: pGI50 (converted); for CC50: read-out: pLC50 (the source's name) (converted)
SNB-75 = test: Cytotoxicity against human SNB75 cells after 48 hrs by SRB assay; conditions: SNB-75, 48 h; for GI50: read-out: pGI50 (converted)
SK-MEL-2 = test: Cytotoxicity against human SK-MEL-2 cells after 48 hrs by SRB assay; conditions: SK-MEL-2, 48 h; for CC50: read-out: LC50 (the source's name); for GI50: read-out: pGI50 (converted)
SK-MEL-5 = test: Cytotoxicity against human SK-MEL-5 cells after 48 hrs by SRB assay; conditions: SK-MEL-5, 48 h; for GI50: read-out: pGI50 (converted); for CC50: read-out: pLC50 (the source's name) (converted)
T47D = test: Cytotoxicity against human T47D cells after 48 hrs by SRB assay; conditions: for GI50: read-out: pGI50 (converted); for CC50: read-out: pLC50 (the source's name) (converted)
SNB-19 = test: Growth inhibition of human SNB19 cells assessed as cell growth at 10^-8 M incubated for 48 hrs by sulforhodamine B assay relative to control; conditions: SNB-19, 48 h, read-out: Activity
OVCAR-8 = test: Growth inhibition of human OVCAR8 cells assessed as cell growth at 10^-8 M incubated for 48 hrs by sulforhodamine B assay relative to control; conditions: OVCAR-8, 48 h, read-out: Activity
SK-OV-3 = test: Growth inhibition of human SKOV3 cells assessed as cell growth at 10^-8 M incubated for 48 hrs by sulforhodamine B assay relative to control; conditions: SK-OV-3, 48 h, read-out: Activity
UO-31 = test: Growth inhibition of human UO31 cells assessed as cell growth at 10^-8 M incubated for 48 hrs by sulforhodamine B assay relative to control; conditions: UO-31, 48 h, read-out: Activity
HOP-92 = test: Growth inhibition of human HOP92 cells assessed as cell growth at 10^-7 M incubated for 48 hrs by sulforhodamine B assay relative to control; conditions: HOP-92, 48 h, read-out: Activity
NCI-H226 = test: Growth inhibition of human NCI-H226 cells assessed as cell growth at 10^-7 M incubated for 48 hrs by sulforhodamine B assay relative to control; conditions: NCI-H226, 48 h, read-out: Activity
NCI-H460 = test: Growth inhibition of human NCI-H460 cells assessed as cell growth at 10^-7 M incubated for 48 hrs by sulforhodamine B assay relative to control; conditions: NCI-H460, 48 h, read-out: Activity
HT-29 = test: Growth inhibition of human HT-29 cells assessed as cell growth at 10^-7 M incubated for 48 hrs by sulforhodamine B assay relative to control; conditions: HT-29, 48 h, read-out: Activity
SF-268 [4] = test: Growth inhibition of human SF268 cells assessed as cell growth at 10^-7 M incubated for 48 hrs by sulforhodamine B assay relative to control; conditions: SF-268, 48 h, read-out: Activity
OVCAR-3 = test: Growth inhibition of human OVCAR3 cells assessed as cell growth at 10^-7 M incubated for 48 hrs by sulforhodamine B assay relative to control; conditions: OVCAR-3, 48 h, read-out: Activity
PC-3 = test: Growth inhibition of human PC3 cells assessed as cell growth at 10^-7 M incubated for 48 hrs by sulforhodamine B assay relative to control; conditions: PC-3, 48 h, read-out: Activity
MDA-MB-231 [5] = test: Growth inhibition of human MDA-MB-231 cells assessed as cell growth at 10^-7 M incubated for 48 hrs by sulforhodamine B assay relative to control; conditions: MDA-MB-231, 48 h, read-out: Activity
NCI-H23 = test: Growth inhibition of human NCI-H23 cells assessed as cell growth at 10^-6 M incubated for 48 hrs by sulforhodamine B assay relative to control; conditions: NCI-H23, 48 h, read-out: Activity
SF-268 [6] = test: Growth inhibition of human SF268 cells assessed as cell growth at 10^-6 M incubated for 48 hrs by sulforhodamine B assay relative to control; conditions: SF-268, 48 h, read-out: Activity
Malme-3M = test: Growth inhibition of human MALME-3M cells assessed as cell growth at 10^-6 M incubated for 48 hrs by sulforhodamine B assay relative to control; conditions: read-out: Activity
TK-10 = test: Growth inhibition of human TK10 cells assessed as cell growth at 10^-6 M incubated for 48 hrs by sulforhodamine B assay relative to control; conditions: TK-10, 48 h, read-out: Activity
MDA-MB-231 [7] = test: Growth inhibition of human MDA-MB-231 cells assessed as cell growth at 10^-6 M incubated for 48 hrs by sulforhodamine B assay relative to control; conditions: MDA-MB-231, 48 h, read-out: Activity
SR = test: Growth inhibition of human SR cells assessed as cell growth at 10^-5 M incubated for 48 hrs by sulforhodamine B assay relative to control; conditions: read-out: Activity
HCT-116 [8] = test: Growth inhibition of human HCT116 cells assessed as cell growth at 10^-5 M incubated for 48 hrs by sulforhodamine B assay relative to control; conditions: HCT-116, 48 h, read-out: Activity
SN12C = test: Growth inhibition of human SN12C cells assessed as cell growth at 10^-5 M incubated for 48 hrs by sulforhodamine B assay relative to control; conditions: read-out: Activity
K562 [9] = test: Growth inhibition of human K562 cells assessed as cell growth at 10^-4 M incubated for 48 hrs by sulforhodamine B assay relative to control; conditions: K562, 48 h, read-out: Activity
HCT-15 [10] = test: Growth inhibition of human HCT15 cells assessed as cell growth at 10^-4 M incubated for 48 hrs by sulforhodamine B assay relative to control; conditions: HCT-15, 48 h, read-out: Activity
KM12 = test: Growth inhibition of human KM12 cells assessed as cell growth at 10^-4 M incubated for 48 hrs by sulforhodamine B assay relative to control; conditions: KM12, 48 h, read-out: Activity
786-0 = test: Cytotoxicity against human 786-0 cells after 48 hrs by SRB assay; conditions: 786-0, 48 h; for GI50: read-out: pGI50 (converted)
[11] = read-out: pLC50 (the source's name) (converted)

C#C[C@@]1(O)[C@@H](CO)O[C@@H](n2cc(F)c3c(N)ncnc32)[C@@H]1O
CC50 (K562 [1]): > 100 µM | TGI (K562 [1]; read-out: TGI): > 100 µM | GI50 (K562 [1]): 0.288 µM | TGI (K562 [1]; read-out: pTGI): > 100 µM | CC50 (HCT-116 [2]; read-out: LC50 (the source's name)): > 100 µM | GI50 (HCT-116 [2]): 0.151 µM | TGI (HCT-15 [3]; read-out: TGI): 3.19 µM | GI50 (HCT-15 [3]): 0.295 µM | CC50 (HCT-15 [3]): > 100 µM | TGI (HCT-15 [3]; read-out: pTGI (converted)): 3.16 µM | TGI (SF-295; read-out: TGI): 2.33 µM | GI50 (SF-295): 0.646 µM | CC50 (SF-295): 6.76 µM | TGI (SF-295; read-out: pTGI (converted)): 2.34 µM | TGI (SNB-75; read-out: TGI): 2.32 µM | GI50 (SNB-75): 1.02 µM | CC50 (SNB-75; [11]): 5.25 µM | TGI (SNB-75; read-out: pTGI (converted)): 2.34 µM | CC50 (SK-MEL-2): > 100 µM | TGI (SK-MEL-2; read-out: TGI): 2.87 µM | GI50 (SK-MEL-2): 0.447 µM | TGI (SK-MEL-2; read-out: pTGI (converted)): 2.88 µM | TGI (SK-MEL-5; read-out: TGI): 1.33 µM | GI50 (SK-MEL-5): 0.269 µM | CC50 (SK-MEL-5): 4.17 µM | TGI (SK-MEL-5; read-out: pTGI (converted)): 1.35 µM | TGI (T47D; read-out: TGI): 0.77 µM | GI50 (T47D): 0.214 µM | CC50 (T47D): 20 µM | TGI (T47D; read-out: pTGI (converted)): 0.776 µM | growth at 0.01 µM (SNB-19): 93% | growth at 0.01 µM (OVCAR-8): 96% | growth at 0.01 µM (SK-OV-3): 96% | growth at 0.01 µM (UO-31): 94% | growth at 0.1 µM (HOP-92): -1% | growth at 0.1 µM (NCI-H226): 95% | growth at 0.1 µM (NCI-H460): 76% | growth at 0.1 µM (HT-29): 68% | growth at 0.1 µM (SF-268 [4]): 105% | growth at 0.1 µM (OVCAR-3): 107% | growth at 0.1 µM (PC-3): 84% | growth at 0.1 µM (MDA-MB-231 [5]): 88% | growth at 1 µM (NCI-H23): 22% | growth at 1 µM (SF-268 [6]): 42% | growth at 1 µM (Malme-3M): 12% | growth at 1 µM (TK-10): 42% | growth at 1 µM (MDA-MB-231 [7]): 22% | growth at 10 µM (SR): 4% | growth at 10 µM (HCT-116 [8]): -9% | growth at 10 µM (SN12C): -8% | growth at 100 µM (K562 [9]): 6% | growth at 100 µM (HCT-15 [10]): -33% | growth at 100 µM (KM12): -10% | TGI (786-0; read-out: TGI): 2.84 µM | GI50 (786-0): 0.708 µM | TGI (786-0; read-out: pTGI (converted)): 2.82 µM

C#C[C@@]1(O)[C@@H](CO)O[C@@H](n2ccc3c(N)ncnc32)[C@@H]1O
CC50 (K562 [1]): > 100 µM | TGI (K562 [1]; read-out: TGI): > 100 µM | GI50 (K562 [1]): 0.813 µM | TGI (K562 [1]; read-out: pTGI): > 100 µM | TGI (HCT-116 [2]; read-out: TGI): 10.8 µM | GI50 (HCT-116 [2]): 0.589 µM | CC50 (HCT-116 [2]; [11]): 85.1 µM | TGI (HCT-116 [2]; read-out: pTGI (converted)): 10.7 µM | TGI (HCT-15 [3]; read-out: TGI): 4.62 µM | GI50 (HCT-15 [3]): 0.891 µM | CC50 (HCT-15 [3]): > 100 µM | TGI (HCT-15 [3]; read-out: pTGI (converted)): 4.57 µM | TGI (SF-295; read-out: TGI): 5.33 µM | GI50 (SF-295): 1.74 µM | CC50 (SF-295): > 100 µM | TGI (SF-295; read-out: pTGI (converted)): 5.37 µM | TGI (SNB-75; read-out: TGI): 3.84 µM | GI50 (SNB-75): 1.82 µM | TGI (SNB-75; read-out: pTGI (converted)): 3.8 µM | CC50 (SK-MEL-2): > 100 µM | TGI (SK-MEL-2; read-out: TGI): 6.32 µM | GI50 (SK-MEL-2): 1.38 µM | TGI (SK-MEL-2; read-out: pTGI (converted)): 6.31 µM | TGI (SK-MEL-5; read-out: TGI): 2.96 µM | GI50 (SK-MEL-5): 1.55 µM | CC50 (SK-MEL-5): 5.62 µM | TGI (SK-MEL-5; read-out: pTGI (converted)): 2.95 µM | TGI (T47D; read-out: TGI): 2.14 µM | GI50 (T47D): 0.447 µM | CC50 (T47D): 7.59 µM | TGI (T47D; read-out: pTGI (converted)): 2.14 µM | growth at 0.01 µM (SNB-19): 99% | growth at 0.01 µM (OVCAR-8): 103% | growth at 0.01 µM (SK-OV-3): 94% | growth at 0.01 µM (UO-31): 94% | growth at 0.1 µM (HOP-92): 104% | growth at 0.1 µM (NCI-H226): 111% | growth at 0.1 µM (NCI-H460): 91% | growth at 0.1 µM (HT-29): 95% | growth at 0.1 µM (SF-268 [4]): 95% | growth at 0.1 µM (OVCAR-3): 106% | growth at 0.1 µM (PC-3): 97% | growth at 0.1 µM (MDA-MB-231 [5]): 106% | growth at 1 µM (NCI-H23): 57% | growth at 1 µM (SF-268 [6]): 76% | growth at 1 µM (Malme-3M): 72% | growth at 1 µM (TK-10): 88% | growth at 1 µM (MDA-MB-231 [7]): 66% | growth at 10 µM (SR): 15% | growth at 10 µM (HCT-116 [8]): 2% | growth at 10 µM (SN12C): -31% | growth at 100 µM (K562 [9]): 2% | growth at 100 µM (HCT-15 [10]): -32% | growth at 100 µM (KM12): -52% | TGI (786-0; read-out: TGI): 6.15 µM | GI50 (786-0): 1.62 µM | LC50 (lethal concentration, 50% cell kill) (786-0; read-out: pLC50 (converted)): 25.7 µM | TGI (786-0; read-out: pTGI (converted)): 6.17 µM
